These results are taken from ChEMBL document CHEMBL5029175, “Discovery of MK-4688: an Efficient Inhibitor of the HDM2-p53 Protein-Protein Interaction” (J Med Chem, 2021).

The nature of series [1]: Mean residence time in rat. Format: ADME. To be noted: in vivo.
A short description of series [2]: Unbound clearance in rat. The settings on record: in vivo. Format: ADME.
Another series has as its system HCT-116. Briefly: cells. The settings on record: Homo sapiens, HCT-116, 72 h.
Series [3] in a line: Bioavailability in rat. The settings on record: in vivo. The series is classed as ADME, organism-based.
The nature of series [4]: Lipophilicity, logD of the compound at pH 7 by RP-HPLC analysis. The settings on record: buffer. Format: physicochemical.
The nature of series [5]: Mean residence time in dog. To be noted: in vivo. Format: ADME, Canis lupus familiaris.
Series [6] in a line: Unbound clearance in dog. The series is classed as ADME, Canis lupus familiaris. To be noted: in vivo.
For series [7], the target named is T1, Tumour suppressor p53/oncoprotein Mdm2 (Homo sapiens, UniProt Q00987). The series is described as follows: Inhibition of N-terminal thioredoxin-His6 tagged HDM2 (17 to 125 residues)/p53 protein-protein interaction (unknown origin) incubated for 2 hrs by TR-FRET assay.
T1 sequence (P04637 whole entry, the tested form may be a part): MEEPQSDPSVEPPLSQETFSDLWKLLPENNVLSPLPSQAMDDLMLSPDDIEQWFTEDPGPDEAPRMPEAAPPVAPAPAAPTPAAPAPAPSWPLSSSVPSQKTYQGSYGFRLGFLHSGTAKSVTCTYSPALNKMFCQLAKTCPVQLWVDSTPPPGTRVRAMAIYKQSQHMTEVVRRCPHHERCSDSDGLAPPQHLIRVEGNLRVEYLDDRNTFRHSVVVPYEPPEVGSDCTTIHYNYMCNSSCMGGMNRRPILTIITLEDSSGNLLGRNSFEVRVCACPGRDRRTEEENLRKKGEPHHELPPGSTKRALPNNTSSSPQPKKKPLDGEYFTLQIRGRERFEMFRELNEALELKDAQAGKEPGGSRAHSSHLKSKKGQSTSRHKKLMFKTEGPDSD
T1 sequence (Q00987 whole entry, the tested form may be a part): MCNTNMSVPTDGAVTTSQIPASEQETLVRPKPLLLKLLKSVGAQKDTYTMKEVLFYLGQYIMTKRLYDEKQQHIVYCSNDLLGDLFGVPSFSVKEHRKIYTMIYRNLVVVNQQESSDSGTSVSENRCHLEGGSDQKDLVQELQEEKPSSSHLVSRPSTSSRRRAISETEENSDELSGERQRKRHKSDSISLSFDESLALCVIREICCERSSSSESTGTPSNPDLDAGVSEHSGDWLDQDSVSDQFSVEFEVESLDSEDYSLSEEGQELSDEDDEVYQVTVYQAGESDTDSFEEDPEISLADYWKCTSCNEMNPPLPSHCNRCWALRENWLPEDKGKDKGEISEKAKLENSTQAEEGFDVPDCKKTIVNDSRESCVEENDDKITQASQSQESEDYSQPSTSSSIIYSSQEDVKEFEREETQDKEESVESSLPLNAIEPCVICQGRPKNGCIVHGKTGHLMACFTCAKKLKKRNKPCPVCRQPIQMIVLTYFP
For series [8], the target named is T1, Tumour suppressor p53/oncoprotein Mdm2. The series is described as follows: Inhibition of HDM2/p53 interaction in human HCT-116 cells expressing p53RE/Bla incubated for 16 hrs by beta-lactamase reporter gene assay. Format: cell-based. (Reporter assays use an easily measured gene product as a stand-in for the process of interest.)
Series [9] in a line: Bioavailability in dog. Format: ADME, organism-based, Canis lupus familiaris. The settings on record: in vivo.
Series [10] can be described thus: Selectivity index, ratio of IC50 for inhibition of HDM2/p53 interaction in human HCT-116 cells expressing p53/Bla to IC50 for inhibition of N-terminal thioredoxin-His6 tagged HDM2 (17 to 125 residues)/p53 protein-protein interaction (unknown origin). The series is classed as cell-based.

Turning to `C[C@@H]1COC[C@@H](C)N1c1nc2cc(-c3noc(=O)[nH]3)nc(-c3cncc(Cl)c3)c2n1C[C@H]1CC[C@H](C)CC1`, the MRT – broadly, the average time that molecules of a dose stay in the body – in series [1] amounted to 0.3 h; in series [5] it was 3.9 h. Also, the CL free in series [2] came to 2166 mL/min/kg; in [6], 131 mL/min/kg. In addition, the half-maximal inhibitory concentration (IC50) – broadly, the concentration needed to halve the response being measured – in the series with HCT-116 was 248 nM. Moreover, the bioavailability (in general, dose-corrected exposure relative to a reference, in per cent) in series [3] turned out to be 9%. Moreover, in series [4], the logD (as a rule, lipophilicity at a set pH, counting ionised and neutral species) came out at 2.32.
In series [7], `CC(C)c1ccnc(-c2nc3nc(C(=O)O)nc(N[C@H](C)C4CCC4)c3n2Cc2ccc(C(F)(F)F)cc2)c1` had a 50% inhibitory concentration (IC50) of 4 nM. The molecule further displayed a pH-dependent lipophilicity (logD) in series [4] of 2.66.
Take `COCC(c1ccccc1)c1nc2cc(-c3noc(=O)[nH]3)nc(-c3cncc(Cl)c3)c2n1C[C@H]1CC[C@H](C)CC1` (mixture of isomers): in the series on HCT-116, the IC50 came to 451 nM. For the same molecule, the pH-dependent lipophilicity (logD) in series [4] was 2.62.
For `C[C@H]1CC[C@H](Cn2c(N3CCOC[C@H]3c3ccccc3)nc3nc(-c4noc(=O)[nH]4)nc(-c4ccccc4)c32)CC1`, the IC50 turned out to be 6370 nM in the series on HCT-116 and 632 nM in [8]. This molecule returned a logD in [4] of 2.72.
As to `C[C@H]1CC[C@H](Cn2c(N3CCOC[C@H]3c3ccccc3)nc3cc(-c4noc(=O)[nH]4)nc(-c4cncc(Cl)c4)c32)CC1`, the values for the MRT in [1] and in series [5] were 0.4 h and 1.7 h, respectively. Further, the CL free was determined as 20745 mL/min/kg in series [2] and 1607 mL/min/kg in series [6]. The IC50 is 93 nM with HCT-116, 0.61 nM in [7] and 31 nM in series [8]. Besides, the bioavailability is 5% in series [3] and 39% in [9]. The logD in [4] was 2.69.
`CC(C)c1ccnc(-c2nc3nc(C(=O)O)nc(N[C@H](C)C4CCC4)c3n2Cc2ccc(OC(F)(F)F)cc2)c1` displayed a concentration for half-maximal inhibition (IC50) in series [7] of 12 nM. In series [4], the logD stood at 2.81.
On to `C[C@H]1CC[C@H](Cn2c(N3CCOC[C@H]3c3ccccc3)nc3nc(-c4noc(=O)[nH]4)nc(-c4cncc(Cl)c4)c32)CC1`, for which the IC50 in the series with HCT-116 was 1970 nM; in series [8] it was 401 nM. Moreover, the pH-dependent lipophilicity (logD) in series [4] came out at 2.55.
`C[C@@H](Nc1nc(-c2n[nH]c(=O)o2)nc2nc(N3CCOC[C@H]3c3ccccc3)n(C[C@H]3CC[C@H](C)CC3)c12)C1CCC1`: the Ratio IC50 in series [10] stood at 70. Further, the IC50 in [7] turned out to be 2 nM; in series [8], 140 nM.
The like results for `C[C@@H](Nc1nc(-c2nnc[nH]2)nc2nc(N3CCOC[C@H]3c3ccccc3)n(C[C@H]3CC[C@H](C)CC3)c12)C1CCC1` were, in that order, 66, 11 nM and 724 nM.
Turning to `COCC(C)c1nc2cc(-c3noc(=O)[nH]3)nc(-c3cncc(Cl)c3)c2n1[C@H](C)[C@H]1CC[C@H](C)CC1` (stereo partly drawn), the MRT in series [1] stood at 0.4 h; in [5], 3.8 h. In addition, the CL free in series [2] is 1150 mL/min/kg; in series [6], 59 mL/min/kg. The IC50 with HCT-116 is 222 nM. For the same molecule, the bioavailability in series [3] stood at 46%; in series [9], 54%. The molecule also registered a log distribution coefficient (logD) in series [4] of 2.59.
With `C[C@@H](Nc1nc(-c2n[nH]c(=O)n2C)nc2nc(N3CCOC[C@H]3c3ccccc3)n(C[C@H]3CC[C@H](C)CC3)c12)C1CCC1`, the Ratio IC50 in [10] worked out at 66. The IC50 was determined as 15 nM in [7] and 990 nM in [8].
In the case of `C[C@H]1CC[C@H](Cn2c(N3CCC[C@H]3CF)nc3cc(-c4noc(=O)[nH]4)nc(-c4cncc(Cl)c4)c32)CC1`, the figures for the MRT in [1] and in [5] were 0.25 h and 1.5 h, respectively. The CL free amounted to 3244 mL/min/kg in series [2] and 920 mL/min/kg in series [6]. Half-maximal inhibition with HCT-116 (IC50) was put at 169 nM. The bioavailability in series [3] came out at 7%; in series [9] it was 37%. Further, the logD in [4] was determined as 2.42.
On to `C[C@@H](Nc1nc(C(=O)O)nc2nc(N[C@@H](CO)c3ccccc3)n(Cc3ccc(C(F)(F)F)cc3)c12)C1CCC1`, for which, in [7], the half-inhibitory concentration (IC50) turned out to be 1.5 nM. This molecule came in with a logD in series [4] of 1.94.
For `CC(C)c1ccnc(-c2nc3nc(C(=O)O)nc(N[C@H](C)C4CCC4)c3n2C[C@H]2CC[C@@H](C)CC2)c1`, in that order: 348 nM and 2.7.
In the case of `CC(C)c1ccnc(-c2nc3nc(C(=O)O)nc(N[C@H](C)C4CCC4)c3n2Cc2ccc(OC(F)(F)F)c(F)c2)c1`, in [4], the logD is 2.84.
In the case of `Cc1cncc(-c2nc(-c3noc(=O)[nH]3)nc3nc(N4CCOC[C@H]4c4ccccc4)n(C[C@H]4CC[C@H](C)CC4)c23)c1`, the figures for the IC50 (in the series with HCT-116; in series [8]) were 7800 nM and 3670 nM, respectively. In addition, the logD in series [4] is 2.17.
As to `CC(C)c1ccnc(-c2nc3nc(C(=O)O)nc(N[C@H](C)C4CCC4)c3n2Cc2ccc(C(F)(F)F)s2)c1`, in [4], the logD worked out at 2.67.
Take `C[C@H]1CC[C@H](Cn2c(N3CCC[C@H]3C(F)(F)F)nc3cc(-c4noc(=O)[nH]4)nc(-c4cncc(Cl)c4)c32)CC1`: the MRT amounted to 0.35 h in [1] and 2.5 h in series [5]. In addition, the CL free was 11233 mL/min/kg in series [2] and 1500 mL/min/kg in series [6]. This molecule also gave an IC50 in the series on HCT-116 of 99 nM. Moreover, the bioavailability in [3] turned out to be 11%. The logD in series [4] turned out to be 2.85.
Turning to `CCO[C@@H](c1nc2cc(-c3noc(=O)[nH]3)nc(-c3cncc(Cl)c3)c2n1[C@H](C)[C@H]1CC[C@H](C)CC1)C1CC1`, the MRT worked out at 0.5 h in [1] and 3.1 h in series [5]. Moreover, the CL free in series [2] turned out to be 2060 mL/min/kg; in [6] it was 323 mL/min/kg. The IC50 in the series on HCT-116 was found to be 31 nM. Also, the bioavailability in series [3] is 54%; in series [9] it was 93%. Also, the logD in series [4] was determined as 2.75.
In the case of `C[C@@H](Nc1nc(C(=O)O)nc2nc(-c3ccc4sccc4c3)n(Cc3ccc(Cl)cc3)c12)C1CC1`, in [4], the logD was 2.2.
As to `C[C@@H](Nc1nc(CO)nc2nc(N3CCOC[C@H]3c3ccccc3)n(C[C@H]3CC[C@H](C)CC3)c12)C1CCC1`, the Ratio IC50 in [10] was found to be 52. Also, in series [8], the IC50 turned out to be 4100 nM.
The molecule `C[C@@H](Nc1nc(C(=O)O)nc2nc(NC3CCCCC3)n(Cc3ccc(C(F)(F)F)cc3)c12)C1CCC1` had a logD in [4] of 2.62.
Take `CCOC(c1nc2cc(-c3noc(=O)[nH]3)nc(-c3cncc(Cl)c3)c2n1C[C@H]1CC[C@H](C)CC1)C1CC1` (stereo partly drawn): in the series with HCT-116, the half-inhibitory concentration (IC50) is 466 nM. In addition, the logD in [4] is 2.34. Moreover, in [5], the mean residence time MRT came out at 1.6 h. The molecule also had a CL free in series [6] of 206 mL/min/kg.
As for `C[C@@H](Nc1nc(C(=O)O)nc2nc(N3CCOC[C@H]3c3ccccc3)n(Cc3ccc(C(F)(F)F)cc3)c12)C1CCC1`, in series [7], the midpoint of inhibition, the IC50, lay at 1.8 nM. Also, in [4], the logD is 2.32.
`COCC(C)c1nc2cc(-c3noc(=O)[nH]3)nc(-c3cncc(Cl)c3)c2n1C[C@H]1CC[C@H](C)CC1` (stereo partly drawn) gave an IC50 with HCT-116 of 1110 nM. Besides, the logD in series [4] is 2.03. Moreover, the MRT in [5] is 1.2 h. Besides, the CL free in [6] stood at 171 mL/min/kg.
In turn, `CC(C)c1cccc(-c2nc3nc(C(=O)O)nc(N[C@H](C)C4CCC4)c3n2Cc2ccc(C(F)(F)F)cc2)c1` had an IC50 in [7] of 15 nM. The same molecule gave a pH-dependent lipophilicity (logD) in [4] of 2.86.
`C[C@@H](Nc1nc(C(=O)O)nc2nc(N3CCOC[C@@H]3c3ccccc3)n(Cc3ccc(C(F)(F)F)cc3)c12)C1CCC1` showed a logD in series [4] of 2.34.
In series [7], `CC(C)c1ccnc(-c2nc3nc(C(=O)O)nc(N[C@H](C)C4CCC4)c3n2C[C@H]2CC[C@H](C)CC2)c1` (mixture of isomers) showed an IC50 of 2.2 nM. In addition, in [4], the logD was determined as 2.94.
As for `C[C@@H](Nc1nc(C(=O)O)nc2nc(N3CCOC[C@H]3c3ccccc3)n(C[C@H]3CC[C@H](C)CC3)c12)C1CCC1`, in series [10], the Ratio IC50 is 5500. In addition, it took 1100 nM to reach half-maximal inhibition in [8] (IC50).
Take `C[C@H]1CC[C@H](Cn2c(N3CCOC[C@H]3c3ccccc3)nc3nc(-c4noc(=O)[nH]4)nc(-c4cccc(Cl)c4)c32)CC1`: the IC50 came to 723 nM in the series with HCT-116, 1.3 nM in series [7] and 113 nM in [8]. The logD in series [4] worked out at 3.15.
As for `C[C@@H](Nc1nc(-c2nc(=O)n(C)[nH]2)nc2nc(N3CCOC[C@H]3c3ccccc3)n(C[C@H]3CC[C@H](C)CC3)c12)C1CCC1`, the Ratio IC50 in series [10] was determined as 135. The IC50 was determined as 1.5 nM in series [7] and 203 nM in [8].
Molecule `Cc1cccc(-c2nc3nc(C(=O)O)nc(NCC4CC4)c3n2CC2CCCCC2)c1` displayed an IC50 in series [7] of 8400 nM. For the same molecule, the logD in series [4] is 3.7.
